{
  "source": "ChEMBL document CHEMBL5465560",
  "about": "“Selectivity Literature for EUbOPEN Chemogenomic Library” (2024)",
  "key": {"[1]": {"target": "Tyrosine-protein kinase JAK1 (Homo sapiens, UniProt P23458)", "sequence (P23458 whole entry)": "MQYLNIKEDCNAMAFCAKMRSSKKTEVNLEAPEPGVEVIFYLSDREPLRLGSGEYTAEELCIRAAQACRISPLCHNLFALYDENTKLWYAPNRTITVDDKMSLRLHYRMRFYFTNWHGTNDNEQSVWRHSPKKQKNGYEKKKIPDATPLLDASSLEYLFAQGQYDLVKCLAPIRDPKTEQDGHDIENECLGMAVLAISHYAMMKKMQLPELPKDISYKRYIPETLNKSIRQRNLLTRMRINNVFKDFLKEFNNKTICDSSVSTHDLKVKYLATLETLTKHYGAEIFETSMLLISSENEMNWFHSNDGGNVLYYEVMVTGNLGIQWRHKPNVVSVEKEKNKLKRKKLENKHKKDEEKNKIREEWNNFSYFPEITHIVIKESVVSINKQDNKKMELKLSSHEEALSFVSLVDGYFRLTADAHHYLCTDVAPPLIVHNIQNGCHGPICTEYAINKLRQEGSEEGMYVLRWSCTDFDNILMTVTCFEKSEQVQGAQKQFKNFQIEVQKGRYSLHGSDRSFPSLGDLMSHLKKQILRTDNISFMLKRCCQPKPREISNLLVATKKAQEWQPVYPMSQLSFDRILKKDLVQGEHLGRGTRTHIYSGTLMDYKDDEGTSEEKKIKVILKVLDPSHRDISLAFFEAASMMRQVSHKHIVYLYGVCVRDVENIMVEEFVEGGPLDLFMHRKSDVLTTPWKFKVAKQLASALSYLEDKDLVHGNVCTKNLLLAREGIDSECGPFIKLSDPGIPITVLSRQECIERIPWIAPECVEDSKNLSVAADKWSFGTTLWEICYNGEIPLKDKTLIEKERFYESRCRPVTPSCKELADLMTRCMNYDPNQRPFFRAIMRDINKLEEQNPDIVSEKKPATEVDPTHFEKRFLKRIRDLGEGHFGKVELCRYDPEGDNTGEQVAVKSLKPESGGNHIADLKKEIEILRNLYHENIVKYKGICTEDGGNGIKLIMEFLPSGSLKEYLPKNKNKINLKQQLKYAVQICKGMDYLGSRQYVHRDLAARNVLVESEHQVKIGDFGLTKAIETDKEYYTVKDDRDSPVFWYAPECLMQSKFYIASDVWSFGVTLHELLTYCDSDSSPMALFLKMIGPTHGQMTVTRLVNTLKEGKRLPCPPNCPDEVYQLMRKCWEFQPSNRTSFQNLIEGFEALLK", "experiment": "Selectivity interaction (KinomeScan (DiscoverX)) EUB0000229b JAK1", "conditions": "at 10 µM"}, "[2]": {"target": "Myosin light chain kinase 2, skeletal/cardiac muscle (Homo sapiens) (UniProt Q9H1R3)", "sequence (Q9H1R3 whole entry)": "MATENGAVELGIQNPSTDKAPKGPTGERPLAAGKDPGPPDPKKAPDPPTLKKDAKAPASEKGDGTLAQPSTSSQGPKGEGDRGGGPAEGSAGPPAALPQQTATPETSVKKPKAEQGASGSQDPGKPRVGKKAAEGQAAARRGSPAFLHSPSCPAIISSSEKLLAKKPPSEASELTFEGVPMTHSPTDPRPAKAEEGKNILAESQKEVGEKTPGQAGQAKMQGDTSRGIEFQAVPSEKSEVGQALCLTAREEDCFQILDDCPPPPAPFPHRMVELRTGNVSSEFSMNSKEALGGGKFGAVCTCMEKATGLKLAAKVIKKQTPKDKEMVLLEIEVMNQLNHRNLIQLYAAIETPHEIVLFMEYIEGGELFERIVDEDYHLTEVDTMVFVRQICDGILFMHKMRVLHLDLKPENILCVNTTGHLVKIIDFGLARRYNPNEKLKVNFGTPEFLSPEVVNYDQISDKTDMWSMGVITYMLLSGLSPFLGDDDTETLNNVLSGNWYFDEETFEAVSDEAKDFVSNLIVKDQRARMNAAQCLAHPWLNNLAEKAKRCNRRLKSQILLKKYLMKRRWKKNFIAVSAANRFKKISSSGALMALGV", "experiment": "Selectivity interaction (KinomeScan (DiscoverX)) EUB0000045b MYLK2"}, "[3]": {"target": "TRAF2 and NCK-interacting protein kinase (Homo sapiens) (UniProt Q9UKE5)", "sequence (Q9UKE5 whole entry, looked up)": "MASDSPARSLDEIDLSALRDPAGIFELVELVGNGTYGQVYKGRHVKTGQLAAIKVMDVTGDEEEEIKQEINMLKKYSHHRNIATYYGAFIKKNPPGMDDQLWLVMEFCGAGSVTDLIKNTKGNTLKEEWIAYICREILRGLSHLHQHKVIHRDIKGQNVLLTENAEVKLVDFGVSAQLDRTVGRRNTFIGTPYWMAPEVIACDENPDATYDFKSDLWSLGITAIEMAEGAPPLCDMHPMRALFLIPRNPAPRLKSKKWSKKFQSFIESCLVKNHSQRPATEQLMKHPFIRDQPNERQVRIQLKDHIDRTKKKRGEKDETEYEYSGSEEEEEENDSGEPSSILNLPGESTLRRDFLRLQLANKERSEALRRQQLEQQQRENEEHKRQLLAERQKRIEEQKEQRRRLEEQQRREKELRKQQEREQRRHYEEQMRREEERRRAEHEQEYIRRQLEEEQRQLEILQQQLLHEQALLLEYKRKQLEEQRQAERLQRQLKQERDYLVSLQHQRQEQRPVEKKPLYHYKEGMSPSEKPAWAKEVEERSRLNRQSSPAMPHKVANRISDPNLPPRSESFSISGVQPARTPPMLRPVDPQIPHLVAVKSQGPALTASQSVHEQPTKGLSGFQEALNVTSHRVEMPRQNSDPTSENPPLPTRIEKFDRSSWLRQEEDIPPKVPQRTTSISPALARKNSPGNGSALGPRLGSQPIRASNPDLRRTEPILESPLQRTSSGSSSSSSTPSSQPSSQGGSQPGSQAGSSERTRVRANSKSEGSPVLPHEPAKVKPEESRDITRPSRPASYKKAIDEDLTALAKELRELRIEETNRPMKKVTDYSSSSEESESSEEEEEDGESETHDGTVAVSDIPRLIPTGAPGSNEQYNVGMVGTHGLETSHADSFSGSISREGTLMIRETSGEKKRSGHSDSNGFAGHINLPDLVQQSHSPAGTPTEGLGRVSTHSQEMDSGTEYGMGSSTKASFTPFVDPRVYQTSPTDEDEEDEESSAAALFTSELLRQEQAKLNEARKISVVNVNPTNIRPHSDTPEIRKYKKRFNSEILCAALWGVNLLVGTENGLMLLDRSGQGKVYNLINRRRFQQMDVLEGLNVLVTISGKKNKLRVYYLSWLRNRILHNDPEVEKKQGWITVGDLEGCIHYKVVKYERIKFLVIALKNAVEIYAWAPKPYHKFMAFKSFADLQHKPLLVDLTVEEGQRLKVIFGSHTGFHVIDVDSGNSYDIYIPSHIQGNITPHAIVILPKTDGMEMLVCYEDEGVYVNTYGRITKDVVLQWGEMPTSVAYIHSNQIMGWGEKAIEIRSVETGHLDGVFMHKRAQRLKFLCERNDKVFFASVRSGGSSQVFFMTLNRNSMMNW", "experiment": "Selectivity interaction (KinomeScan (DiscoverX)) EUB0000695a TNIK", "conditions": "at 100 nM"}, "[4]": {"target": "Myosin-IIIa (Homo sapiens) (UniProt Q8NEV4)", "sequence (Q8NEV4 whole entry)": "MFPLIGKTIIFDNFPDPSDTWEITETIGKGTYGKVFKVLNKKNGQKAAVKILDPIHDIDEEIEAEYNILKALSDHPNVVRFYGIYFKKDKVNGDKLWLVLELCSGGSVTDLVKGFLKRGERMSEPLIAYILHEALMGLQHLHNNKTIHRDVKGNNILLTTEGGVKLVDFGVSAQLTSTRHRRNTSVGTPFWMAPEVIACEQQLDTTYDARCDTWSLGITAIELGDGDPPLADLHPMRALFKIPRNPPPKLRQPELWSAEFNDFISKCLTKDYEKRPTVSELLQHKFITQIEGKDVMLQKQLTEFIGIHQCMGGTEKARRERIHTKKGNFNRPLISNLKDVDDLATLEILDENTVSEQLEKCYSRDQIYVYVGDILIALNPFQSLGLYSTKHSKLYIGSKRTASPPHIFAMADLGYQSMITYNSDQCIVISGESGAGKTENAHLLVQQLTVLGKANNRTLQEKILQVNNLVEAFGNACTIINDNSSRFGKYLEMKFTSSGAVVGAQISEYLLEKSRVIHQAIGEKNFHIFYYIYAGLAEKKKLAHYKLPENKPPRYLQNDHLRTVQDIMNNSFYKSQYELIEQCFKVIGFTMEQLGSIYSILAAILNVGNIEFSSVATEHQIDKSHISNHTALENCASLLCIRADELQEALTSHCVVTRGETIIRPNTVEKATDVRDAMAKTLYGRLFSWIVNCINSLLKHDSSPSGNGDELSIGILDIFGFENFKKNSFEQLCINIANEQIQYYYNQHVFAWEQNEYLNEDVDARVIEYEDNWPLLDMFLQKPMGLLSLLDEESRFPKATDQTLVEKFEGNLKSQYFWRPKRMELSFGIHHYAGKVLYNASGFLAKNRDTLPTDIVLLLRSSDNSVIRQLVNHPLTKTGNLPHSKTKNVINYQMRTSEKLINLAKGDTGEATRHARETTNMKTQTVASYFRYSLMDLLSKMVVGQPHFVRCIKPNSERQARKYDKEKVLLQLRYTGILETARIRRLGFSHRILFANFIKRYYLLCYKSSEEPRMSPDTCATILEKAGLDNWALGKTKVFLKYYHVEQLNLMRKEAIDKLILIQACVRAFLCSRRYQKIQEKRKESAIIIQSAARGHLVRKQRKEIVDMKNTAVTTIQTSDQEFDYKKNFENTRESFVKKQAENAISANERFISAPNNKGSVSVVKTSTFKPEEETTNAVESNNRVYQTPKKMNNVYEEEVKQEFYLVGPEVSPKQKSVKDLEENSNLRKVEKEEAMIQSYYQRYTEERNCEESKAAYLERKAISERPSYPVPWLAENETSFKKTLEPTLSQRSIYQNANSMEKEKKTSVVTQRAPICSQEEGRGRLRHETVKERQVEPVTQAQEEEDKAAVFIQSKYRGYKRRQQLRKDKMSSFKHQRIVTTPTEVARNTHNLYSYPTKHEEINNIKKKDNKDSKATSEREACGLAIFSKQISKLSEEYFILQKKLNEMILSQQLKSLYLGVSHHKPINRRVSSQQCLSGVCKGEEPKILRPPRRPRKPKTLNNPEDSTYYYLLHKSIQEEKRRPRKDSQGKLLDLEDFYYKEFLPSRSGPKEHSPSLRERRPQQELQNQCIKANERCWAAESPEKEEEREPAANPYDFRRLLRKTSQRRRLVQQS", "conditions": "at 10 µM"}, "[5]": {"target": "Glycogen synthase kinase-3 alpha (Homo sapiens, UniProt P49840)", "experiment": "Selectivity interaction (KinomeScan (DiscoverX)) EUB0001049a GSK3A", "conditions": "at 1 µM"}, "[6]": {"target": "Bromodomain-containing protein 4 (Homo sapiens, UniProt O60885)"}, "[7]": {"target": "Mitogen-activated protein kinase 1 (Homo sapiens, UniProt P28482)", "sequence (P28482 whole entry)": "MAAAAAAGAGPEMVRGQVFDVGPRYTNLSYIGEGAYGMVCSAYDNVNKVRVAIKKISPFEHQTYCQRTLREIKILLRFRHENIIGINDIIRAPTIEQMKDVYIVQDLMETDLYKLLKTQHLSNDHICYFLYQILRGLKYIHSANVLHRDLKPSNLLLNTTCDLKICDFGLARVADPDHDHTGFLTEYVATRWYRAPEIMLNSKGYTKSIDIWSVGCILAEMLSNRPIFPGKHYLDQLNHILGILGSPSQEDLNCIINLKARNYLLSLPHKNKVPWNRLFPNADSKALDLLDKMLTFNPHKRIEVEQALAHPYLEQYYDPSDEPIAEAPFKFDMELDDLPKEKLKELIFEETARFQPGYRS", "experiment": "Selectivity interaction (Millipore kinase profiler) EUB0000124b MAPK1", "conditions": "at 10 µM"}, "[8]": {"target": "T1, Membrane-associated tyrosine- and threonine-specific cdc2-inhibitory kinase (Homo sapiens) (UniProt Q99640)", "T1 sequence (whole entry)": "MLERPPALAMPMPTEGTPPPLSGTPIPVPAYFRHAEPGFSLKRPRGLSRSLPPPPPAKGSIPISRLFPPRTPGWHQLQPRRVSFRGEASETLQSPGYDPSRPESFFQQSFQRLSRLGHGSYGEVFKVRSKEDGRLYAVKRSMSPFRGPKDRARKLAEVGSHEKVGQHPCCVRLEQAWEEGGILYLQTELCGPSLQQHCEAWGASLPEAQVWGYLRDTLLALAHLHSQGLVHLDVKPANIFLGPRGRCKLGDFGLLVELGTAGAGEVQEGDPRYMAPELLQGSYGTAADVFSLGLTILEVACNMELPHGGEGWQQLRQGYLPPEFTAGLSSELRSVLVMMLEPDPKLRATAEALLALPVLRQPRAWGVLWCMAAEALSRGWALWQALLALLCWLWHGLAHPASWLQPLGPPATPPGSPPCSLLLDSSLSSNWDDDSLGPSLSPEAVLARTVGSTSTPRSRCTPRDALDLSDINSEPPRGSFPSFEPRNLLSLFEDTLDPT", "experiment": "Selectivity interaction (KinomeScan (DiscoverX)) EUB0001619a PKMYT1", "conditions": "at 1 µM"}, "[9]": {"target": "T2, Peripheral plasma membrane protein CASK (Homo sapiens) (UniProt O14936)", "T2 sequence (whole entry)": "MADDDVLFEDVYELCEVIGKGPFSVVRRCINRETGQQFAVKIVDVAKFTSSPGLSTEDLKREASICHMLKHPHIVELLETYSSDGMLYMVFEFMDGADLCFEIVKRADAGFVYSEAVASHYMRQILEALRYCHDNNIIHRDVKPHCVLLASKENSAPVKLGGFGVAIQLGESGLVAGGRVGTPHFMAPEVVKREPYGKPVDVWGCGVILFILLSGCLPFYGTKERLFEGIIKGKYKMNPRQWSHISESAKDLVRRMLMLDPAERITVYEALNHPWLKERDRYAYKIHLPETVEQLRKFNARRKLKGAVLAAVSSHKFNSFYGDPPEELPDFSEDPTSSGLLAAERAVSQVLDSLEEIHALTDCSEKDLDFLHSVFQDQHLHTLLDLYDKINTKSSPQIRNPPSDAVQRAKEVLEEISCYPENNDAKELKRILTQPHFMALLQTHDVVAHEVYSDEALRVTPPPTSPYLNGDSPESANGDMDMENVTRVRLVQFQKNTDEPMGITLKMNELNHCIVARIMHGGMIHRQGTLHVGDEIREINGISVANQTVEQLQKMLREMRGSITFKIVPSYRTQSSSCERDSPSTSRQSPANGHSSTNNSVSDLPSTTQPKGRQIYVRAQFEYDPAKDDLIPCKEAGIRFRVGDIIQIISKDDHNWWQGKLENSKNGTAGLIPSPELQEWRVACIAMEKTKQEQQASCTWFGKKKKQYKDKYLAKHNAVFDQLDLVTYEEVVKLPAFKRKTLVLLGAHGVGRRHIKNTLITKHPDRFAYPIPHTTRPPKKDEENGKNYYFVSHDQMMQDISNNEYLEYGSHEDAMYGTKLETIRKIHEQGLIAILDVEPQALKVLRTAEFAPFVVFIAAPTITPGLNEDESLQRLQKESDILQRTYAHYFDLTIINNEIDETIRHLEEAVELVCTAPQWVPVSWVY", "experiment": "Selectivity interaction (KinomeScan (DiscoverX)) EUB0001619a CASK", "conditions": "at 1 µM"}, "[10]": {"target": "Serine/threonine-protein kinase MARK2 (Homo sapiens) (UniProt Q7KZI7)", "experiment": "Selectivity interaction (ActivX KiNativ screen (kinase selectivity in THP-1 cell lysates)) EUB0000639a MARK2", "type": "subcellular", "conditions": "lysate, at 0.2 µM"}, "[11]": {"target": "T3, Inhibitor of nuclear factor kappa-B kinase subunit epsilon (Homo sapiens) (UniProt Q14164)", "T3 sequence (whole entry)": "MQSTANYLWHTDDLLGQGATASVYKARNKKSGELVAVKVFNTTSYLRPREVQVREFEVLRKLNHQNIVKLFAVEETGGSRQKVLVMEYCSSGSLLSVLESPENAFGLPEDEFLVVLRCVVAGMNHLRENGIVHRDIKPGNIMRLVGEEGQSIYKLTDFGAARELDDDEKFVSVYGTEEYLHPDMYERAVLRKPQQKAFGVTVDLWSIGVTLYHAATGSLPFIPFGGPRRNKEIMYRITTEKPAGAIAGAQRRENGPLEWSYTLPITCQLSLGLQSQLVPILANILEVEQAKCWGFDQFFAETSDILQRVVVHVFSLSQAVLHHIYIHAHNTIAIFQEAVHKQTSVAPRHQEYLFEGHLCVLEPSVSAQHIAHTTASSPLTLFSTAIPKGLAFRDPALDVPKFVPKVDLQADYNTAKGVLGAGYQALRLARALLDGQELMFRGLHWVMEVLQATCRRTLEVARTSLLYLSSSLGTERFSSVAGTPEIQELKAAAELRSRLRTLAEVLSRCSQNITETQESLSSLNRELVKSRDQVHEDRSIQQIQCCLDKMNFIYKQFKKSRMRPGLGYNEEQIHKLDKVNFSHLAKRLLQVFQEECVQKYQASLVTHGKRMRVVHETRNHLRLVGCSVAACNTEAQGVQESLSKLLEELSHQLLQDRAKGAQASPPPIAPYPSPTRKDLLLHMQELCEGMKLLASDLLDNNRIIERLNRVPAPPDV", "experiment": "Selectivity interaction (ActivX KiNativ screen (kinase selectivity in THP-1 cell lysates)) EUB0000639a IKBKE", "type": "subcellular", "conditions": "lysate"}},
  "data": [
    {"smiles": "COc1cc(N(C)c2ccnc3ccc(C(F)(F)F)cc23)cc(OC)c1OC", "values": [
      {"measurement": "% binding", "setting": "[1]", "result": 70, "unit": "%"}
    ]},
    {"smiles": "C=CC(=O)Nc1cc(-n2c(=O)ccc3cnc4ccc(-c5ccc(NS(C)(=O)=O)cc5)cc4c32)ccc1C", "values": [
      {"measurement": "% of control", "setting": "[2]; at 1 µM", "result": 93, "unit": "%"},
      {"measurement": "% of control", "setting": "[2]; at 10 µM", "result": 100, "unit": "%"}
    ]},
    {"smiles": "Cc1cc(F)c(C(=O)Nc2cccc(-c3nncn3C(C)C)n2)cc1-n1cnc(C2CC2)c1", "values": [
      {"measurement": "% of control", "setting": "[3]", "result": 78, "unit": "%"}
    ]},
    {"smiles": "Cc1cc([C@@H](C)Nc2ccccc2C(=O)O)c2nc(N3CCOCC3)cc(=O)n2c1", "note": "[AZD-6482]", "values": [
      {"measurement": "% of control", "setting": "[4]", "result": 97, "unit": "%"}
    ]},
    {"smiles": "COc1cc(Nc2nc(C)cc(-c3cnn4nc(OC)ccc34)n2)cc(C(F)(F)F)c1", "values": [
      {"measurement": "% of control", "setting": "[5]", "result": 100, "unit": "%"}
    ]},
    {"smiles": "CC(=O)Nc1cccc(-n2c(=O)n(C3CC3)c(=O)c3c(Nc4ccc(I)cc4F)n(C)c(=O)c(C)c32)c1", "values": [
      {"measurement": "Kdapp", "setting": "[6]", "result": 1920, "unit": "nM"},
      {"measurement": "% of control", "setting": "[7]", "result": 86, "unit": "%"}
    ]},
    {"smiles": "N#Cc1cccc(-c2c[nH]c3ncnc(N4CCOCC4)c23)c1", "values": [
      {"measurement": "% of control", "setting": "[8]", "result": 73, "unit": "%"},
      {"measurement": "% of control", "setting": "[9]", "result": 66, "unit": "%"}
    ]},
    {"smiles": "CC[C@@H]1[C@H](F)C(=O)N[C@@H]1COc1nccc2cc(C(N)=O)c(OC)cc12", "note": "[ZIMLOVISERTIB]", "values": [
      {"measurement": "% of inhibition", "setting": "[10]", "result": 4.2, "unit": "%"},
      {"measurement": "% of inhibition", "setting": "[11]; at 0.01 µM", "result": 20.6, "unit": "%"},
      {"measurement": "% of inhibition", "setting": "[11]; at 0.04 µM", "result": 7.3, "unit": "%"},
      {"measurement": "% of inhibition", "setting": "[11]; at 0.2 µM", "result": 30.8, "unit": "%"},
      {"measurement": "% of inhibition", "setting": "[11]; at 1 µM", "result": 60.2, "unit": "%"},
      {"measurement": "% of inhibition", "setting": "[11]; at 5 µM", "result": 82.3, "unit": "%"}
    ]}
  ]
}
